The nature of data set [1]: Aqueous solubility by HPLC analysis. It counts as physicochemical. The note with it: water, thermodynamic from solid. On the procedure:
(§1) To determine concentration, solutions were diluted in methanol; to determine purity, 2.7 mg material was dissolved in 1 mL methanol. The conditions listed below were then used. • Instrument: Agilent 1100 • Column: Waters Symmetry C18 5μ 150×3.9 mm column • Column Temperature: 25° C. • Autosampler Temperature: Not controlled • UV wavelength: 254 nm • Injection Volume: 3 μL • Flow Rate: 1.2 mL/min • Mobile Phase A: 0.01% formic acid in water • Mobile Phase B: 0.01% formic acid in ACN • Gradient program: […]
A filtered solution of ponatinib HCl in acetonitrile/water (1:1) was allowed to slowly evaporate at ambient temperature. A hydrated crystal form 8 showing characteristic peaks at 6.21 and 10.5 2Theta was found. Approximately 11.4% water content was found by KF analysis. […] (peak at 90° C.).
A filtered solution of ponatinib HCl in acetone/water (1:1) was allowed to slowly evaporate. A hydrated crystal form 8 showing characteristic peaks at 6.21 and 10.5 2Theta was found. Approximately 11.4% water content was found by KF analysis. […] (peak at 90° C.).
Ponatinib HCl form 1 was slurried in water for 24 h at 22° C. A hydrated crystal form 8 showing characteristic peaks at 6.21 and 10.5 2Theta was found. Approximately 11.4% water content was found by KF analysis. […] (peak at 90° C.).

Data set [2] is described as follows: Storage stability, chemical purity by HPLC. It counts as physicochemical. The note with it: conclusion from the stability studies. The method, then:
as §1
In order to assess physical and chemical stability, Ponatinib HCl crystal form 1 obtained by direct crystallization according to example 4, and the crystalline ponatinib HCl Form 1 which was obtained via Form 8 according to example 7, were stored at 25° C./60%RH and 40° C./75% RH. After 1 week, the three samples were analysed by XRPD and HPLC (chemical purity).

Two compounds from patent US9725454B2, “Crystalline forms of ponatinib hydrochloride” (SANDOZ AG, priority 2013, dated 2017) can be followed below.

The structures appear in SMILES notation. Structures can show the parent of a compound that is named as a salt.

Broadly, the solubility is the concentration that dissolves in the medium under given conditions. Lower therefore signals little dissolved substance. Consider `Cc1ccc(C(=O)Nc2ccc(CN3CCN(C)CC3)c(C(F)(F)F)c2)cc1C#Cc1cnc2cccnn12` [Form 8, ponatinib hydrochloride], for which the solubility in data set [1] is 620 µg/mL. For the compound `Cc1ccc(C(=O)Nc2ccc(CN3CCN(C)CC3)c(C(F)(F)F)c2)cc1C#Cc1cnc2cccnn12` [Form 1 via form 8, ponatinib hydrochloride], the “chemical stability compared with form 1 obtained by direct crystallization” value in data set [2] is “higher chemical stability”.
